± gives the expanded uncertainty stated by the source.
Settings: Liquid, Capillary tube (Ostwald / Ubbelohde) method

O [water]
viscosity [mPa·s]
Settings	284.56 K	304.83 K	335.46 K	368.64 K	397.56 K	435.61 K
100 kPa	1.257 ± 0.011	0.7654 ± 0.007	0.4482 ± 0.0044	0.2938 ± 0.0032	–	–
10000 kPa	1.249 ± 0.011	0.7725 ± 0.0071	0.4504 ± 0.0044	0.2966 ± 0.0032	0.2278 ± 0.0026	0.1679 ± 0.0022
40000 kPa	1.231 ± 0.011	0.7745 ± 0.007	0.4635 ± 0.0045	0.3086 ± 0.0032	0.2358 ± 0.0027	0.1745 ± 0.0022

Reference: the NIST ThermoML archive (doi:10.1016/j.tca.2005.08.036)
